We go through 1 compound from patent US20130137682A1, “PEST CONTROL COMPOSITION” (SUMITOMO CHEMICAL COMPANY, LIMITED, priority 2010, published 2013).

This test deals with Haemaphysalis longicornis. Put plainly: Test Example 3: insecticidal test on Haemaphysalis longicornis by treating glass surface. The format is in vivo. To be noted: 48 h, read-out: Mortality Rate (%). How it is done:
Insecticidal Test on Haemaphysalis longicornis by Treating Glass Surface
Acetone solutions were each prepared for the present hydrazide compounds and the present neonicotinoid compounds. To inner walls of a glass screw tube and lid (NO. 5, manufactured by Maruemu Corporation), 0.2 mL of the acetone solution was uniformly applied. […] The lid is closed tightly, and the number of dead ticks is examined after 2 days.

What is called mortality is the percentage killed. Turning to `CCN(Cc1ccc(Cl)nc1)/C(=C/[N+](=O)[O-])NC` [Nitenpyram, nitenpyram], the mortality at 500 mg/m2 came out at 20%.
